The values below come from patent publication US20260240807A1, “UROLITHINS FOR IMPROVING CARDIAC FUNCTION AND HEALTH” (Amazentis SA, priority 2022, published 2026).

In assay [1] the test system is Wistar male rats with myocardial infarction (permanent LAD occlusion). The assay can be described thus: Echocardiography and heart mass after myocardial infarction (LAD ligation). Particulars: MI rats, 25 mg/kg daily by gavage for 2 months starting one week after MI, vs MI vehicle. In kind it is in vivo, rat. The procedure: The goal of the study is to assess urolithin A treatment effect on heart function after myocardial infarction. […] Myocardial infarction (MI) was induced in 6-week old Wistar male rats from groups 1, 2, and 3 (Table 3), by permanent occlusion of Left Anterior Descending coronary artery (ligation was performed at Do).
Rats were anesthetized with an intraperitoneal (IP) injection of Medetomidine (0.5 mg/kg) and ketamine (50 mg/kg), intubated and ventilated at 10 mL/kg tidal volume and 70-80 cycles/min. Body temperature were maintained between 36.5° C. and 37.5° C. via a thermoregulated heating pad connected to a rectal probe. Rats were placed in supine position, chest-shaved and prepared for standard surgical conditions. A left lateral thoracotomy was carefully performed so as to expose the heart. Then, a suture was placed around the LAD (4/0 Silk, Ethicon), around 2 mm below the left atrium and close to the interventricular junction, in order to obtain infarct size (IS) near 40% of the total left ventricular (LV) area. Chest was closed, air was expelled from the rib cage to avoid pneumothorax and quick reanimation was performed using atipamezole hydrochloride (IM, 0.5 mg/ml, Zoetis).
Animals from group 1 were subjected to the same protocol as MI groups. However, after the left lateral thoracotomy exposing the heart, the rib cage were closed without passing the suture thread around LAD.
Urolithin A or vehicle were administered by gavage at 25 mg/kg starting one week after myocardial infraction. Heart and plasma samples were collected at each time point. Ejection Fraction (EF), Fractional Shortening (FS), Isovolumic relaxation time (IVRT) were measured by echocardiography at 1 month and 2 month time points to evaluate heart function. […]
Rats were anesthetized with 4% isoflurane in 50% oxygen-50% air mixture and maintained with 2% isoflurane during the procedure. […] Body temperature was monitored and maintained between 36.5-37.5° C. via a rectal probe connected to the thermoregulated heating pad.
Standard B-mode (Brightness-mode) and M-mode (Motion-mode) images of the heart were obtained in the two-dimensional (2D) parasternal long axis view (PSLA). LV parameters will be measured and calculated as the mean of 3 consecutive cardiac cycles by a single blinded trained operator. • Left Ventricular function LV function is calculated using the LV dimensions parameters previously described. • FS=fractional shortening=[(LVIDd−LVIDs)/LVIDd]*100. It is a calculation based on the difference of dimensions between systole and diastole measured in M-mode. […] It is a calculation based on the difference of volumes between systole and diastole measured in B-mode and M-mode. […]

Assay [2] deals with gene sets (Cellular Components) linked to mitochondrial function in heart tissue. The assay is described as follows: RNA-seq gene set enrichment analysis of heart sections, MI rats. In kind it is in vivo, rat. The conditions noted are these: MI+UA vs MI rats, 25 mg/kg PO. Here is the method: Heart sections from rats in the groups described in FIG. 1 (Example 1) have been prepared using a microtome, deparaffinized and RNA extracted using the following kit (RNAeasy FFPE 76504, Qiagen). Upon extraction, RNA was quality controlled with Agilent Fragment Analyzer System.
Library preparation was performed using Strand-specific cDNA library and following the steps here indicated: • rRNA depletion. • mRNA fragmentation. • Random primed cDNA synthesis (strand-specific) • Adapter ligation and adapter specific PCR amplification RNA-seq run was executed with the NovaSeq6000 using S4 flowcells with 2×150 bp.
QC and preprocessing of raw sequencing reads was performed using an in-house QC pipeline. […] High quality RNA-seq read pairs were mapped to the Ensembl rat reference genome
Reads with a minimum PHRED score of 15, a minimum length of 15 bp, and a minimum unqualified percent limit of 40 (40%) were retained for downstream analysis. […]
Gene Set Enrichment Analysis (GSEA) (Subramanian, et al. Proc Natl Acad Sci USA 2005, 102 (43), 15545-50) was performed for characterizing complex relations of gene expression changes with gene ontologies (cellular components), under different biological conditions. […] Gene ranking information is transformed to pathway level to assign statistical significance for each analyzed gene set. […]

Assay [3] has as its system Old C57BL/6 mice. The assay is described as follows: Echocardiography in old mice (age-related heart dysfunction). The format is in vivo, mouse. The conditions noted are these: old mice (26 months), chow diet with urolithin A 50 mg/kg for 2 months. Here is the method:
(§1) The goal of the study is to evaluate urolithin treatment effect age-related heart dysfunction. […] Old C57BL/6 mice (26 months) were used as model to reproduce natural decline in heart function with aging. Chow diet with and without urolithin A was administered for 2 months at 50 mg/kg. Post-mortem heart muscles, skeletal muscles, and plasma samples post-mortem were collected at the end of the study. Ejection Fraction (EF), Fractional Shortening (FS) were measured by echocardiography. Muscle contractility was also measured. Analysis of both heart and skeletal muscle function were conducted at the end of the study.

Assay [4] deals with Old C57BL/6 mice. The assay can be described thus: Skeletal muscle function (muscle contractility) in old mice. The format is in vivo, mouse. The conditions noted are these: old mice (26 months), chow diet with urolithin A 50 mg/kg for 2 months. The procedure:
as §1

For assay [5], the system named is heart mitochondria of old C57BL/6 mice. The assay is described as follows: Transmission electron microscopy of heart mitochondria in old mice. The format is in vivo, mouse. Particulars: 50 mg/kg by gavage for 2 months, vs old vehicle. Here is the method:
(§2) The goal of the study was to evaluate urolithin treatment effect on age-related heart dysfunction. Old C57BL/6 mice (24 months at the end of the study) were used as model to reproduce natural decline in heart function with aging and administered by gavage for 2 months with either Urolithin A at 50 mg/kg (Old UA) or vehicle (Old Vehicle). Young mice (18 weeks-old at the end of the study) were administered with vehicle for 2 months. Post-mortem heart muscles, were collected at the end of the study.
Muscle samples from animals as described in example 2 were fixed in 2% glutaraldehyde solution 0.1 M Sorenson's buffer (pH 7.3). These samples were later postfixed in 1% osmium tetroxide for 8 min [pulse microwaved (MW), 100 watts (W)] and rinsed in distilled H2O (3×150 W 40 s per step). Samples were dehydrated in a graded series of acetone (25%; 50%; 75%; 3× 100%; 150 W 40 seconds per step) before being impregnated with increasing concentrations of epoxy resin (TAAB medium resin) in acetone (25%; 50%; 75%; 3×100%; 300 W 3 min per step). The samples were then embedded in 100% fresh resin and left to polymerize at 60° C. in a conventional oven for a minimum of 24 h.
All resin blocks were trimmed using a razor blade to form a trapezoid block face. Sections were cut in a longitudinal or transverse orientation on an ultramicrotome (Wolf et al., 2019) using a diamond knife. Semithin sections (0.5 μm) were stained with toluidine blue and viewed on a light microscope (LM) to verify orientation of tissue. Ultrathin sections (70 nm) were then cut and picked up onto copper grids. Sections from blocks were stained with 1% uranyl acetate (30 min) and 3% lead citrate (7 min). All sections were examined using a HT7800 120 kV TEM (Hitachi). Digital micrographs were captured using an EMSIS Xarosa CMOS Camera with Radius software.
These samples were later postfixed in 1% osmium tetroxide during 1 h, dehydrated within an increasing concentration of acetone. […]
Individual heart mitochondria from 3 Young vehicle, 3 Old vehicle and 3 Old UA O-AL mice were manually traced in transverse orientations using ImageJ software (NIH) (https://imagej.nih.gov/ij/) and to quantify the following morphological and shape descriptors: area (μm2), perimeter (μm), circularity 4π×(area/perimeter2), aspect ratio ((major axis)/(minor axis)): the aspect ratio being a measure of the length to width ratio, form factor ((perimeter)/(4π×surface)): a measure sensitive to the complexity and the branched appearance of the mitochondria, Feret's diameter (the longest distance (μm) between two points of the mitochondria studied) and minimum Feret diameter (corresponds to the smallest diameter of the mitochondria) (Picard et al., 2012). […]

The test system of assay [6] is gene sets (Cellular Components) repressed with aging in heart. The assay is described as follows: RNA-seq gene set enrichment analysis of heart, old mice. Particulars: old mice treated with UA 50 mg/kg for 2 months vs old vehicle. The format is in vivo, mouse. The procedure: as §2
RNA-seq analysis from samples derived from example 3 has been performed as described for example 1.
A Gene set enrichment analysis was performed looking at gene set (i.e., biological pathways) belonging to the category “Cellular Components”.

For assay [7], the system named is mitochondrial complex II enzyme SDH. The assay can be described thus: Succinate dehydrogenase activity staining of heart sections. In kind it is in vivo, mouse. The conditions noted are these: old mice, 50 mg/kg by gavage for 2 months, vs old vehicle control. The procedure: as §2
Hearts in OCT were cut into sections of […] using a cryostat. Sections were then incubated in a solution containing nitroblue tetrazolium (1.5 mM), sodium succinate (130 mM), phenazine methosulphate (0.2 mM), and sodium azide (0.1 mM) for 6 min at room temperature. The reaction was stopped by two washes in PBS. Slides were mounted using Fluoromont mounting medium (Thermofisher, 00-4958-02). All samples were processed successively using the same incubation solution ensuring that they underwent the exact same experimental conditions. Images of the tissues were taken with a bright field microscope. The intensity of the staining was analyzed with Image J.

In the case of `O=c1oc2cc(O)ccc2c2ccc(O)cc12` [Urolithin A], in assay [1], the “cardiac hypertrophy, calculated as heart weight over tibia length” value is on record as “reduces”; the “diastolic function, measured as isovolumetric relaxation time” value is “improves”; the “systolic dysfunction measured as Ejection fraction” value is “significantly improves”; the “systolic dysfunction measured as Fractional shortening” value is “significantly improves”. Moreover, the “gene sets repressed with MI (mitochondrial protein-containing complex, respirasome, nucleoids, peroxisomes), normalized enrichment score” value in assay [2] was “induced”. Moreover, the “increase in fractional shortening, after high-workload” value in the assay with Old C57BL/6 mice [3] (after high-workload) was “+39%”. Also, the “increase in fractional shortening, basally” value with Old C57BL/6 mice [3] (basal) was “+32%”. Also, in the assay with Old C57BL/6 mice [4], the skeletal muscle function entry is “significantly prevents age-related decline”. Moreover, in assay [5] (heart mitochondria), the cristae number entry is recorded as “significantly increases” and the cristae volume density entry was “significantly increases”. In addition, the “mitophagy events, quantified as number of mitolysosomes” value in assay [5] (heart) was “significantly increases”. Also, the mitochondrial area result in assay [5] (heart, to levels compared to young animals) is recorded as “significantly increased”. The “gene sets repressed with aging (respirasome, sarcolemma), normalized enrichment score” value in assay [6] is reported as “induced”. Also, in assay [7], the “SDH enzymatic activity in the heart” value is “significantly increases”.
